The record followed here is article PMC5218480 (PLoS ONE, 2017).

This experiment deals with MV-4-11 cells. The experiment is described as follows: Gene expression microarray analysis (Affymetrix PrimeView) and GSEA. In kind it is cell-based, human. The arrangement: RFU PODN (11730768_x_at) / Fold change /veh PODN (11730768_x_at) / RFU LINC00158 (11744669_a_at) / Fold change /veh LINC00158 (11744669_a_at) / RFU DUSP10 (11751237_a_at) / Fold change /veh DUSP10 (11751237_a_at) / RFU ID3 (11757404_x_at) / Fold change /veh ID3 (11757404_x_at) / RFU PLEKHG5 (11737974_s_at) / Fold change /veh PLEKHG5 (11737974_s_at) / RFU LRRC4B (11730491_at) / Fold change /veh LRRC4B (11730491_at) / RFU GIMAP4 (11747438_a_at) / Fold change /veh GIMAP4 (11747438_a_at) / RFU KRT8 (11758183_x_at) / Fold change /veh KRT8 (11758183_x_at) / RFU CNN1 (11734310_a_at) / Fold change /veh CNN1 (11734310_a_at) / RFU VPS37D (11726825_at) / Fold change /veh VPS37D (11726825_at) / RFU C10orf10 (11716522_x_at) / Fold change /veh C10orf10 (11716522_x_at) / RFU KIR2DL2 /// KIR2DL4 /// KIR2DL5A /// KIR2DL5B /// KIR2DS1 /// KIR2DS2 /// KIR2DS3 /// KIR2DS4 /// KIR3DL3 /// KIR3DL3 /// KIR3DS1 (11738374_at) / Fold change /veh KIR2DL2 /// KIR2DL4 /// KIR2DL5A /// KIR2DL5B /// KIR2DS1 /// KIR2DS2 /// KIR2DS3 /// KIR2DS4 /// KIR3DL3 /// KIR3DL3 /// KIR3DS1 (11738374_at) / RFU C1QL1 (11718748_at) / Fold change /veh C1QL1 (11718748_at) / RFU TMPRSS4 (11747572_a_at) / Fold change /veh TMPRSS4 (11747572_a_at) / RFU HAMP (11756126_x_at) / Fold change /veh HAMP (11756126_x_at) / RFU RNFT2 (11725882_a_at) / Fold change /veh RNFT2 (11725882_a_at) / RFU NR4A2 (11747474_a_at) / Fold change /veh NR4A2 (11747474_a_at) / RFU ABCC12 (11746883_a_at) / Fold change /veh ABCC12 (11746883_a_at) / RFU TMEM136 (11760407_x_at) / Fold change /veh TMEM136 (11760407_x_at) / RFU CLDN22 /// WWC2 (11732394_at) / Fold change /veh CLDN22 /// WWC2 (11732394_at) / RFU HLA-DPB1 (11760878_x_at) / Fold change /veh HLA-DPB1 (11760878_x_at) / RFU SPINT1 (11716480_a_at) / Fold change /veh SPINT1 (11716480_a_at) / RFU GAP43 (11754022_s_at) / Fold change /veh GAP43 (11754022_s_at) / RFU A4GNT (11735810_at) / Fold change /veh A4GNT (11735810_at) / RFU PRB3 (11715151_x_at) / Fold change /veh PRB3 (11715151_x_at) / RFU TUBB4B (11761932_at) / Fold change /veh TUBB4B (11761932_at) / RFU CAPN14 (11732068_a_at) / Fold change /veh CAPN14 (11732068_a_at) / RFU TMCC2 (11721928_a_at) / Fold change /veh TMCC2 (11721928_a_at) / RFU IRGQ (11745062_a_at) / Fold change /veh IRGQ (11745062_a_at) / RFU FAM174B (11720279_a_at) / Fold change /veh FAM174B (11720279_a_at) / RFU TMPRSS4 (11748680_a_at) / Fold change /veh TMPRSS4 (11748680_a_at) / RFU FAM212B (11763350_a_at) / Fold change /veh FAM212B (11763350_a_at) / RFU PLEKHG5 (11743358_a_at) / Fold change /veh PLEKHG5 (11743358_a_at) / RFU ZSCAN30 (11745921_a_at) / Fold change /veh ZSCAN30 (11745921_a_at) / RFU CMKLR1 (11741424_a_at) / Fold change /veh CMKLR1 (11741424_a_at) / RFU LOC101060620 /// MAPK8IP1 (11723275_at) / Fold change /veh LOC101060620 /// MAPK8IP1 (11723275_at) / RFU SPTSSB (11747773_x_at) / Fold change /veh SPTSSB (11747773_x_at) / RFU PRSS12 (11739890_at) / Fold change /veh PRSS12 (11739890_at) / RFU BIN1 (11741810_x_at) / Fold change /veh BIN1 (11741810_x_at) / RFU WNT11 (11732464_a_at) / Fold change /veh WNT11 (11732464_a_at) / RFU C10orf10 (11716521_a_at) / Fold change /veh C10orf10 (11716521_a_at) / RFU C5orf56 (11738089_at) / Fold change /veh C5orf56 (11738089_at) / RFU CYB561 (11721691_x_at) / Fold change /veh CYB561 (11721691_x_at) / RFU ANKRD19P (11752326_a_at) / Fold change /veh ANKRD19P (11752326_a_at) / RFU OR2T12 /// OR2T33 /// OR2T8 (11738714_s_at) / Fold change /veh OR2T12 /// OR2T33 /// OR2T8 (11738714_s_at) / RFU VCAN (11748164_a_at) / Fold change /veh VCAN (11748164_a_at) / RFU JSRP1 (11732532_at) / Fold change /veh JSRP1 (11732532_at) / RFU KRTAP10-11 (11738290_x_at) / Fold change /veh KRTAP10-11 (11738290_x_at) / RFU MYO3A (11730013_a_at) / Fold change /veh MYO3A (11730013_a_at) / RFU EBF3 (11725865_a_at) / Fold change /veh EBF3 (11725865_a_at) / RFU CAMK2N1 (11719241_x_at) / Fold change /veh CAMK2N1 (11719241_x_at) / RFU C5orf56 (11738088_a_at) / Fold change /veh C5orf56 (11738088_a_at) / RFU OLFML3 (11715873_a_at) / Fold change /veh OLFML3 (11715873_a_at) / RFU LOC100653217 /// NTM (11731650_a_at) / Fold change /veh LOC100653217 /// NTM (11731650_a_at) / RFU MAPK11 (11762145_a_at) / Fold change /veh MAPK11 (11762145_a_at) / RFU FIZ1 (11724087_x_at) / Fold change /veh FIZ1 (11724087_x_at) / RFU OASL (11726364_x_at) / Fold change /veh OASL (11726364_x_at) / RFU SOX15 (11748057_x_at) / Fold change /veh SOX15 (11748057_x_at) / RFU CD79A (11719716_a_at) / Fold change /veh CD79A (11719716_a_at) / RFU HIST1H1D (11736915_at) / Fold change /veh HIST1H1D (11736915_at) / RFU CASKIN2 (11723855_a_at) / Fold change /veh CASKIN2 (11723855_a_at) / RFU LOC730098 (11760151_x_at) / Fold change /veh LOC730098 (11760151_x_at) / RFU OR4N2 (11742367_at) / Fold change /veh OR4N2 (11742367_at) / RFU PRRT2 (11749266_a_at) / Fold change /veh PRRT2 (11749266_a_at) / RFU SNX32 (11753110_a_at) / Fold change /veh SNX32 (11753110_a_at) / RFU CDHR5 (11726645_a_at) / Fold change /veh CDHR5 (11726645_a_at) / RFU RCAN1 (11760418_a_at) / Fold change /veh RCAN1 (11760418_a_at) / RFU FAM167A (11723789_a_at) / Fold change /veh FAM167A (11723789_a_at) / RFU FAM26E (11764081_at) / Fold change /veh FAM26E (11764081_at) / RFU ISYNA1 (11749810_s_at) / Fold change /veh ISYNA1 (11749810_s_at) / RFU ACY1 (11761880_at) / Fold change /veh ACY1 (11761880_at) / RFU 11764098_at / Fold change /veh 11764098_at / RFU SAMD14 (11745864_x_at) / Fold change /veh SAMD14 (11745864_x_at) / RFU NPB (11741838_a_at) / Fold change /veh NPB (11741838_a_at) / RFU TMPRSS6 (11731388_a_at) / Fold change /veh TMPRSS6 (11731388_a_at) / RFU KRTAP10-2 (11738614_at) / Fold change /veh KRTAP10-2 (11738614_at) / RFU ARHGAP8 /// PRR5-ARHGAP8 (11727945_x_at) / Fold change /veh ARHGAP8 /// PRR5-ARHGAP8 (11727945_x_at) / RFU KRTAP5-7 /// NADSYN1 (11734609_at) / Fold change /veh KRTAP5-7 /// NADSYN1 (11734609_at) / RFU RASL12 (11751679_a_at) / Fold change /veh RASL12 (11751679_a_at) / RFU CDKN2B (11736163_a_at) / Fold change /veh CDKN2B (11736163_a_at) / RFU PRF1 (11729649_at) / Fold change /veh PRF1 (11729649_at) / RFU, ZNF638 /// ZNF638-IT1 / Fold change vs veh, ZNF638 /// ZNF638-IT1 / RFU, PANK3 / Fold change vs veh, PANK3 / RFU, SH3YL1 / Fold change vs veh, SH3YL1 / RFU, ZEB2 / Fold change vs veh, ZEB2 / RFU, NRIP1 / Fold change vs veh, NRIP1 / RFU, PTTG1IP / Fold change vs veh, PTTG1IP / RFU, CAPN2 / Fold change vs veh, CAPN2 / RFU, MED14 / Fold change vs veh, MED14 / RFU, SNORA58 / Fold change vs veh, SNORA58 / RFU, C1orf63 / Fold change vs veh, C1orf63 / RFU, LRRFIP1 / Fold change vs veh, LRRFIP1 / RFU, NDUFAF7 / Fold change vs veh, NDUFAF7 / RFU, SLC12A2 / Fold change vs veh, SLC12A2 / RFU, IBTK / Fold change vs veh, IBTK / RFU, ESF1 / Fold change vs veh, ESF1 / Fold change vs veh, TMEM50B / RFU, TAOK1 / Fold change vs veh, TAOK1 / RFU, ACBD3 / Fold change vs veh, ACBD3 / RFU, TMA16 / Fold change vs veh, TMA16 / RFU, RWDD3 / Fold change vs veh, RWDD3 / RFU, BCAT1 / Fold change vs veh, BCAT1 / RFU, EDEM3 / Fold change vs veh, EDEM3 / RFU, TMEM33 / Fold change vs veh, TMEM33 / RFU, WDR75 / Fold change vs veh, WDR75 / RFU, AHCTF1 / Fold change vs veh, AHCTF1 / RFU, TFRC / Fold change vs veh, TFRC / RFU, ZDHHC17 / Fold change vs veh, ZDHHC17 / RFU, NOM1 / Fold change vs veh, NOM1 / RFU, ARL8B / Fold change vs veh, ARL8B / RFU, ZBTB11 / Fold change vs veh, ZBTB11 / RFU, TAMM41 / Fold change vs veh, TAMM41 / RFU, KIAA1704 /// LOC100996395 / Fold change vs veh, KIAA1704 /// LOC100996395 / RFU, ING1 / Fold change vs veh, ING1 / RFU, TRMT61B / Fold change vs veh, TRMT61B / RFU, FUBP3 / Fold change vs veh, FUBP3 / RFU, TP53 / Fold change vs veh, TP53 / RFU, TNKS2 / Fold change vs veh, TNKS2 / RFU, ZFP14 / Fold change vs veh, ZFP14 / RFU, ACTR2 / Fold change vs veh, ACTR2 / RFU, PPP3R1 / Fold change vs veh, PPP3R1 / RFU, PIK3R1 / Fold change vs veh, PIK3R1 / RFU, HNRNPA1 / Fold change vs veh, HNRNPA1 / RFU, RNF170 / Fold change vs veh, RNF170 / RFU, ZNF28 / Fold change vs veh, ZNF28 / RFU, RNGTT / Fold change vs veh, RNGTT / RFU, OGT / Fold change vs veh, OGT / RFU, BRD1 / Fold change vs veh, BRD1 / RFU, MARS / Fold change vs veh, MARS / RFU, ZNF655 / Fold change vs veh, ZNF655 / RFU, FAHD1 / Fold change vs veh, FAHD1 / RFU, BDP1 / Fold change vs veh, BDP1 / RFU, LRRCC1 / Fold change vs veh, LRRCC1 / RFU, ARID1A / Fold change vs veh, ARID1A / RFU, ZNF146 / Fold change vs veh, ZNF146 / RFU, ZNF330 / Fold change vs veh, ZNF330 / RFU, GPN3 / Fold change vs veh, GPN3 / RFU, C9orf123 / Fold change vs veh, C9orf123 / RFU, N4BP2L2 / Fold change vs veh, N4BP2L2 / RFU, ARFIP1 / Fold change vs veh, ARFIP1 / RFU, FAM179B / Fold change vs veh, FAM179B / RFU, BCL10 / Fold change vs veh, BCL10 / RFU, UHRF1BP1L / Fold change vs veh, UHRF1BP1L / RFU, BET1 / Fold change vs veh, BET1 / RFU, CNOT2 / Fold change vs veh, CNOT2 / RFU, ZNF268 / Fold change vs veh, ZNF268 / Fold change vs veh, ZNF507 / RFU, DGCR2 / Fold change vs veh, DGCR2 / RFU, WDSUB1 / Fold change vs veh, WDSUB1 / Fold change vs veh, HSP90B1 /// MIR3652 / RFU, ADSS / Fold change vs veh, ADSS / RFU, GK / Fold change vs veh, GK / RFU, ZNF148 / Fold change vs veh, ZNF148 / RFU, TAF9 / Fold change vs veh, TAF9 / RFU, SLC1A5 / Fold change vs veh, SLC1A5 / RFU, SLMO2 / Fold change vs veh, SLMO2 / RFU, ABCC4 / Fold change vs veh, ABCC4 / RFU, LOC101060439 /// RAP1B / Fold change vs veh, LOC101060439 /// RAP1B / RFU, RFX7 / Fold change vs veh, RFX7 / RFU, GTPBP10 / Fold change vs veh, GTPBP10 / RFU, CNEP1R1 / Fold change vs veh, CNEP1R1 / RFU, BIVM-ERCC5 /// ERCC5 / Fold change vs veh, BIVM-ERCC5 /// ERCC5 / RFU, ILF3 / Fold change vs veh, ILF3 / RFU 11762660_at / Fold change /veh 11762660_at / RFU VCAN (11757783_s_at) / Fold change /veh VCAN (11757783_s_at) / RFU DDX43 (11728927_at) / Fold change /veh DDX43 (11728927_at) / RFU KRT8 (11758188_x_at) / Fold change /veh KRT8 (11758188_x_at) / RFU NKD1 (11759106_at) / Fold change /veh NKD1 (11759106_at) / RFU SRD5A1 (11742802_a_at) / Fold change /veh SRD5A1 (11742802_a_at) / RFU TPSAB1 /// TPSB2 (11721975_s_at) / Fold change /veh TPSAB1 /// TPSB2 (11721975_s_at) / RFU GSTM3 (11746129_a_at) / Fold change /veh GSTM3 (11746129_a_at) / RFU IL23R (11737362_x_at) / Fold change /veh IL23R (11737362_x_at) / RFU TMEM51 (11727254_a_at) / Fold change /veh TMEM51 (11727254_a_at) / RFU PIWIL2 (11732686_x_at) / Fold change /veh PIWIL2 (11732686_x_at) / RFU ORM1 (11744905_x_at) / Fold change /veh ORM1 (11744905_x_at) / RFU CCDC152 (11743942_at) / Fold change /veh CCDC152 (11743942_at) / RFU ECM1 (11717891_a_at) / Fold change /veh ECM1 (11717891_a_at) / RFU IL23R (11748794_a_at) / Fold change /veh IL23R (11748794_a_at) / RFU TNFAIP8L3 (11732012_x_at) / Fold change /veh TNFAIP8L3 (11732012_x_at) / RFU MBOAT4 (11741988_at) / Fold change /veh MBOAT4 (11741988_at) / RFU 11764193_at / Fold change /veh 11764193_at / RFU TMEM53 (11763286_at) / Fold change /veh TMEM53 (11763286_at) / RFU MAGEB2 (11727129_at) / Fold change /veh MAGEB2 (11727129_at) / RFU TMEM200A (11744735_a_at) / Fold change /veh TMEM200A (11744735_a_at) / RFU CCDC152 (11751479_a_at) / Fold change /veh CCDC152 (11751479_a_at) / RFU FAM211A (11726209_a_at) / Fold change /veh FAM211A (11726209_a_at) / RFU RGS16 (11746705_a_at) / Fold change /veh RGS16 (11746705_a_at) / RFU VCAN (11755009_s_at) / Fold change /veh VCAN (11755009_s_at) / RFU RHOB (11743442_s_at) / Fold change /veh RHOB (11743442_s_at) / RFU RGS16 (11720943_a_at) / Fold change /veh RGS16 (11720943_a_at) / RFU RGS16 (11720944_at) / Fold change /veh RGS16 (11720944_at) / RFU, VPS4B / Fold change vs veh, VPS4B / RFU, CREB1 / Fold change vs veh, CREB1 / RFU, DNAJC13 / Fold change vs veh, DNAJC13 / RFU, GNAQ / Fold change vs veh, GNAQ / RFU, CDK5R1 / Fold change vs veh, CDK5R1 / RFU, ZRANB3 / Fold change vs veh, ZRANB3 / RFU, CUL4A / Fold change vs veh, CUL4A / RFU, CCNY / Fold change vs veh, CCNY / RFU, UFL1 / Fold change vs veh, UFL1 / RFU, COG3 / Fold change vs veh, COG3 / RFU, DIAPH2 / Fold change vs veh, DIAPH2 / RFU, SKA2 / Fold change vs veh, SKA2 / RFU, AFF3 / Fold change vs veh, AFF3 / RFU, LMF1 / Fold change vs veh, LMF1 / RFU, IPO11 / Fold change vs veh, IPO11 / RFU, DFFB / Fold change vs veh, DFFB / RFU, FOXP1 / Fold change vs veh, FOXP1 / RFU, CARD8 / Fold change vs veh, CARD8 / RFU, STRN3 / Fold change vs veh, STRN3 / RFU, ADK / Fold change vs veh, ADK / RFU, RASSF2 / Fold change vs veh, RASSF2 / RFU, WIPF1 / Fold change vs veh, WIPF1 / RFU, LARP1B / Fold change vs veh, LARP1B / RFU, RASA1 / Fold change vs veh, RASA1 / RFU, RB1 / Fold change vs veh, RB1 / RFU, PPFIA1 / Fold change vs veh, PPFIA1 / RFU, MAT2A / Fold change vs veh, MAT2A / RFU, CCT5 / Fold change vs veh, CCT5 / RFU, WDR92 / Fold change vs veh, WDR92 / RFU, CUX1 / Fold change vs veh, CUX1 / RFU, TTC7A / Fold change vs veh, TTC7A / RFU, TMEM135 / Fold change vs veh, TMEM135 / RFU, DEPTOR / Fold change vs veh, DEPTOR / RFU, CPM / Fold change vs veh, CPM / RFU, DNAJB6 / Fold change vs veh, DNAJB6 / RFU, CACNA2D3 / Fold change vs veh, CACNA2D3 / RFU, DTX4 / Fold change vs veh, DTX4 / RFU, TFCP2 / Fold change vs veh, TFCP2 / RFU, GMCL1 /// GMCL1P1 / Fold change vs veh, GMCL1 /// GMCL1P1 / RFU, AEBP2 / Fold change vs veh, AEBP2 / RFU, SNHG1 /// SNORD22 /// SNORD25 /// SNORD26 /// SNORD27 /// SNORD28 /// SNORD29 /// SNORD31 / Fold change vs veh, SNHG1 /// SNORD22 /// SNORD25 /// SNORD26 /// SNORD27 /// SNORD28 /// SNORD29 /// SNORD31 / Fold change (Aza/veh), C12orf56 (ProbeSet 11735607_a_at) / Fold change (ACY-1035/veh), C12orf56 (ProbeSet 11735607_a_at) / Fold change (Aza/veh), FGFR1OP (ProbeSet 11751329_s_at) / Fold change (ACY-1035/veh), FGFR1OP (ProbeSet 11751329_s_at) / Fold change (Aza/veh), VPS36 (ProbeSet 11739960_a_at) / Fold change (ACY-1035/veh), VPS36 (ProbeSet 11739960_a_at) / RFU SYPL1 (11715823_x_at) / Fold change /veh SYPL1 (11715823_x_at) / RFU IGFBP7 (11715501_s_at) / Fold change /veh IGFBP7 (11715501_s_at) / RFU REEP3 (11722064_at) / Fold change /veh REEP3 (11722064_at) / RFU IGLL1 (11728026_x_at) / Fold change /veh IGLL1 (11728026_x_at): dose or concentration left out as unconfirmed. Conditions: MV-4-11 cells, 48 hours.

Consider `Nc1ncn([C@@H]2O[C@H](CO)[C@@H](O)[C@H]2O)c(=O)n1` [azacitidine], for which the “Fold change /veh TNFAIP8L3 (11732012_x_at)” value was found to be 1.33.
